Reference: ChEMBL document CHEMBL4265905, “Synthesis and biological evaluation of novel Jiyuan Oridonin A-1,2,3-triazole-azole derivatives as antiproliferative agents” (Eur J Med Chem, 2018)

Key:
Assay type in all cases: functional, cell-based
[1] = system: ECa-109 cell line; experiment: Antiproliferative activity against human ECA109 cells after 72 hrs by MTT assay; conditions: ECa-109, 72 h
[2] = system: MGC-803; experiment: Antiproliferative activity against human MGC803 cells after 72 hrs by MTT assay; conditions: MGC-803, 72 h
[3] = system: PC-3; experiment: Antiproliferative activity against human PC3 cells after 72 hrs by MTT assay; conditions: PC-3, 72 h
[4] = system: MCF7; experiment: Antiproliferative activity against human MCF7 cells after 72 hrs by MTT assay; conditions: MCF7, 72 h
[5] = system: A549; experiment: Antiproliferative activity against human A549 cells after 72 hrs by MTT assay; conditions: A549, 72 h
[6] = system: SMMC-7721; experiment: Antiproliferative activity against human SMMC7721 cells after 72 hrs by MTT assay; conditions: SMMC-7721, 72 h

Row | IC50 [2] | IC50 [3] | IC50 [4] | IC50 [5] | IC50 [6] | SMILES | IC50 [1]
1 | 29.7 µM | 13.4 µM | 15.7 µM |  |  | C=C1C(=O)[C@]23[C@H](O)[C@H]1C[C@H](O)[C@H]2[C@]12CCCC(C)(C)[C@H]1C[C@H]3O[C@@H]2OCCCn1cc(CN2C(=O)S/C(=C\c3ccc(F)cc3)C2=O)nn1 | 4.7 µM
2 | 2.1 µM | 8.9 µM | 4.1 µM | 7.8 µM | 3.4 µM | C=C1C(=O)[C@]23[C@H](O)[C@H]1C[C@H](O)[C@H]2[C@]12CCCC(C)(C)[C@H]1C[C@H]3O[C@@H]2OCCCn1cc(CN2C(=O)S/C(=C/CC)C2=O)nn1 | 2.5 µM
3 | 27.1 µM | 24.3 µM | 21.1 µM | 16.4 µM | 14.6 µM | C=C1C(=O)[C@]23[C@H](O)[C@H]1C[C@H](O)[C@H]2[C@]12CCCC(C)(C)[C@H]1C[C@H]3O[C@H]2O | 25.2 µM
4 | 5.2 µM | 9.6 µM | 15.2 µM |  |  | C=C1C(=O)[C@]23[C@H](O)[C@H]1C[C@H](O)[C@H]2[C@]12CCCC(C)(C)[C@H]1C[C@H]3O[C@@H]2OCCCn1cc(CSc2nncs2)nn1 | 5.6 µM
5 | 25.9 µM | 18.4 µM | 7.9 µM |  |  | C=C1C(=O)[C@]23[C@H](O)[C@H]1C[C@H](O)[C@H]2[C@]12CCCC(C)(C)[C@H]1C[C@H]3O[C@@H]2OCCCn1cc(CN2C(=O)S/C(=C\c3ccccc3Cl)C2=O)nn1 | 2.6 µM
6 | 2.1 µM | 1.6 µM | 4.2 µM | 5.8 µM | 1.8 µM | C=C1C(=O)[C@]23[C@H](O)[C@H]1C[C@H](O)[C@H]2[C@]12CCCC(C)(C)[C@H]1C[C@H]3O[C@@H]2OCCCn1cc(CSc2nc3ccccc3s2)nn1 | 1.4 µM
7 | 27.8 µM | 13.2 µM | 4.9 µM |  |  | C=C1C(=O)[C@]23[C@H](O)[C@H]1C[C@H](O)[C@H]2[C@]12CCCC(C)(C)[C@H]1C[C@H]3O[C@@H]2OCCCn1cc(CN2C(=O)S/C(=C\c3ccc([N+](=O)[O-])cc3)C2=O)nn1 | 5.4 µM
8 | 10.1 µM | 13.9 µM | 4.1 µM |  |  | C=C1C(=O)[C@]23[C@H](O)[C@H]1C[C@H](O)[C@H]2[C@]12CCCC(C)(C)[C@H]1C[C@H]3O[C@@H]2OCCCn1cc(CN2C(=O)S/C(=C\c3cc(OC)c(OC)c(OC)c3)C2=O)nn1 | 11.8 µM
9 | 5.2 µM | 5.9 µM | 14.9 µM |  |  | C=C1C(=O)[C@]23[C@H](O)[C@H]1C[C@H](O)[C@H]2[C@]12CCCC(C)(C)[C@H]1C[C@H]3O[C@@H]2OCCCn1cc(CSc2ncccn2)nn1 | 5 µM
10 | 8.9 µM | 11.6 µM | 13.6 µM |  |  | C=C1C(=O)[C@]23[C@H](O)[C@H]1C[C@H](O)[C@H]2[C@]12CCCC(C)(C)[C@H]1C[C@H]3O[C@@H]2OCCCn1cc(CSc2nnnn2C)nn1 | 8.6 µM
11 | 2.5 µM | 6.2 µM | 4.3 µM | 9.2 µM | 5.7 µM | C=C1C(=O)[C@]23[C@H](O)[C@H]1C[C@H](O)[C@H]2[C@]12CCCC(C)(C)[C@H]1C[C@H]3O[C@@H]2OCCCn1cc(CN2C(=O)SC(=C(C)C)C2=O)nn1 | 4.9 µM
12 | 20 µM | 13.2 µM | 6.6 µM |  |  | C=C1C(=O)[C@]23[C@H](O)[C@H]1C[C@H](O)[C@H]2[C@]12CCCC(C)(C)[C@H]1C[C@H]3O[C@@H]2OCCCn1cc(CN2C(=O)S/C(=C\c3ccccc3)C2=O)nn1 | 4.9 µM
13 | > 50 µM | 5.8 µM | 9.5 µM |  |  | C=C1C(=O)[C@]23[C@H](O)[C@H]1C[C@H](O)[C@H]2[C@]12CCCC(C)(C)[C@H]1C[C@H]3O[C@@H]2OCCCn1cc(CN2C(=O)CSC2=O)nn1 | 35 µM
14 | 35 µM | 16.1 µM | 4.8 µM |  |  | C=C1C(=O)[C@]23[C@H](O)[C@H]1C[C@H](O)[C@H]2[C@]12CCCC(C)(C)[C@H]1C[C@H]3O[C@@H]2OCCCn1cc(CN2C(=O)S/C(=C\c3ccc(F)c(F)c3)C2=O)nn1 | 3.3 µM
15 | 4.5 µM | 7.7 µM | 14.6 µM |  |  | C=C1C(=O)[C@]23[C@H](O)[C@H]1C[C@H](O)[C@H]2[C@]12CCCC(C)(C)[C@H]1C[C@H]3O[C@@H]2OCCCn1cc(CSc2nnc(C)s2)nn1 | 6.2 µM
16 | 1.2 µM | 5.3 µM | 1.9 µM | 4.8 µM | 5.3 µM | C=C1C(=O)[C@]23[C@H](O)[C@H]1C[C@H](O)[C@H]2[C@]12CCCC(C)(C)[C@H]1C[C@H]3O[C@@H]2OCCCn1cc(CN2C(=O)S/C(=C/CCCCC)C2=O)nn1 | 4.2 µM
17 | 17.3 µM | 11.5 µM | 8.9 µM |  |  | C=C1C(=O)[C@]23[C@H](O)[C@H]1C[C@H](O)[C@H]2[C@]12CCCC(C)(C)[C@H]1C[C@H]3O[C@@H]2OCCCn1cc(CN2C(=O)S/C(=C\c3ccc(OC)cc3)C2=O)nn1 | 9.3 µM
18 | 1.7 µM | 1.4 µM | 2.6 µM | 4 µM | 3.5 µM | C=C1C(=O)[C@]23[C@H](O)[C@H]1C[C@H](O)[C@H]2[C@]12CCCC(C)(C)[C@H]1C[C@H]3O[C@@H]2OCCCn1cc(CSC2=NCCS2)nn1 | 0.8 µM
19 | 34.3 µM | 43.9 µM | 64.3 µM | 25.4 µM | 30.1 µM | C=C1C(=O)[C@]23[C@H](O)[C@H]1CC[C@H]2[C@@]12CO[C@]3(O)[C@@H](O)[C@@H]1C(C)(C)CC[C@@H]2O [ORIDONIN] | 33.6 µM
20 | 9.7 µM | 10 µM | 7.6 µM | 13.6 µM | 12 µM | C=C1C(=O)[C@]23[C@H](O)[C@H]1C[C@H](O)[C@H]2[C@]12CCCC(C)(C)[C@H]1C[C@H]3OC2OCCCN=[N+]=[N-] (single isomer, unassigned) | 10.1 µM
